Measurements reported in ChEMBL document CHEMBL1201862, “PubChem BioAssay data set” (2004).
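1) Cells in 96-well plates. 2) Compound, 48 h, 5 concentrations. 3) Linear interpolation between surrounding doses. 4) Unreached endpoint = highest concentration. GI50 = concentration required for 50% inhibition of growth.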 Active and inactive are the calls of the source. No stated cut-off is given here; in the data, active = GI50 up to about 1.1 µM and inactive = higher.

Columns and labels:
Experiment in all cases: NCI tumour cell line growth inhibition, 48 h
HL-60 = test system: HL-60
UO-31 = test system: UO-31
SR = test system: SR
LXFL 529 = test system: LXFL 529
UACC-257 = test system: UACC-257
LOX IMVI = test system: LOX IMVI
SF-268 = test system: SF-268
ACHN = test system: ACHN
SF-295 = test system: SF-295
CAKI-1 = test system: CAKI-1
KM12 = test system: KM12
Malme-3M = test system: Malme-3M
HOP-18 = test system: HOP-18
RPMI-8226 = test system: RPMI-8226
SK-OV-3 = test system: SK-OV-3
UACC-62 = test system: UACC-62
DLD-1 = test system: DLD-1
OVCAR-8 = test system: OVCAR-8
A498 = test system: A498
786-0 = test system: 786-0
SN12C = test system: SN12C
NCI-H226 = test system: NCI-H226
HOP-92 = test system: HOP-92
U-251 = test system: U-251
OVCAR-4 = test system: OVCAR-4
IGROV-1 = test system: IGROV-1
NCI-H460 = test system: NCI-H460
SK-MEL-2 = test system: SK-MEL-2
HCT-116 = test system: HCT-116
DMS-273 = test system: DMS-273
RXF 393 = test system: RXF 393
HCT-15 = test system: HCT-15
HOP-62 = test system: HOP-62
A549 = test system: A549
M14 = test system: M14
TK-10 = test system: TK-10
HT-29 = test system: HT-29
CCRF-CEM = test system: CCRF-CEM
DMS-114 = test system: DMS-114
K562 = test system: K562
MOLT-4 = test system: MOLT-4
SK-MEL-28 = test system: SK-MEL-28
NCI-H522 = test system: NCI-H522
NCI-H23 = test system: NCI-H23
SF-539 = test system: SF-539
COLO 205 = test system: COLO 205
SK-MEL-5 = test system: SK-MEL-5
OVCAR-5 = test system: OVCAR-5
SNB-75 = test system: SNB-75
SW-620 = test system: SW-620
M19-MEL = test system: M19-MEL

For `COc1ccc(C2S/C(=C\c3cccc([N+](=O)[O-])c3)C(=O)N2NC(=O)Cc2ccccc2)cc1` (stereo unspecified), the GI50 (HL-60) was > 100 µM (inactive), the GI50 (UO-31) was > 100 µM (inactive) and the GI50 (SR) was > 100 µM (inactive). The GI50 (LXFL 529) was > 100 µM (inactive), the GI50 (UACC-257) was > 100 µM (inactive) and the GI50 (LOX IMVI) was > 100 µM (inactive). For the same compound, the GI50 (SF-268) was > 100 µM (inactive), the GI50 (ACHN) was > 100 µM (inactive) and the GI50 (SF-295) was > 100 µM (inactive). The GI50 (CAKI-1) was > 100 µM (inactive), the GI50 (KM12) was > 100 µM (inactive) and the GI50 (Malme-3M) was > 100 µM (inactive). The GI50 (HOP-18) was > 100 µM (inactive), the GI50 (RPMI-8226) was > 100 µM (inactive) and the GI50 (SK-OV-3) was > 100 µM (inactive). The GI50 (UACC-62) was > 100 µM (inactive), the GI50 (DLD-1) was > 100 µM (inactive) and the GI50 (OVCAR-8) was > 100 µM (inactive). For the same compound, the GI50 (A498) was > 100 µM (inactive), the GI50 (786-0) was > 100 µM (inactive) and the GI50 (SN12C) was > 100 µM (inactive). The GI50 (NCI-H226) was > 100 µM (inactive), the GI50 (HOP-92) was > 100 µM (inactive) and the GI50 (U-251) was > 100 µM (inactive). For the same compound, the GI50 (OVCAR-4) was > 100 µM (inactive), the GI50 (IGROV-1) was > 100 µM (inactive) and the GI50 (NCI-H460) was > 100 µM (inactive). The GI50 (SK-MEL-2) was > 100 µM (inactive), the GI50 (HCT-116) was > 100 µM (inactive) and the GI50 (DMS-273) was > 100 µM (inactive). For the same compound, the GI50 (RXF 393) was > 100 µM (inactive), the GI50 (HCT-15) was over 100 µM and the GI50 (HOP-62) was > 100 µM (inactive). For the same compound, the GI50 (A549) was > 100 µM (inactive), the GI50 (M14) was > 100 µM (inactive) and the GI50 (TK-10) was > 100 µM (inactive). For the same compound, the GI50 (HT-29) was > 100 µM (inactive), the GI50 (CCRF-CEM) was > 100 µM (inactive) and the GI50 (DMS-114) was > 100 µM (inactive). The GI50 (K562) was > 100 µM (inactive), the GI50 (MOLT-4) was > 100 µM (inactive) and the GI50 (SK-MEL-28) was > 100 µM (inactive). For the same compound, the GI50 (NCI-H522) was > 100 µM (inactive), the GI50 (NCI-H23) was > 100 µM (inactive) and the GI50 (SF-539) was > 100 µM (inactive). For the same compound, the GI50 (COLO 205) was > 100 µM (inactive), the GI50 (SK-MEL-5) was > 100 µM (inactive) and the GI50 (OVCAR-5) was > 100 µM (inactive). The GI50 (SNB-75) was > 100 µM (inactive), the GI50 (SW-620) was > 100 µM (inactive) and the GI50 (M19-MEL) was > 100 µM (inactive).
